Measured values reported in US8192962B2, “Processes for detecting toxic substances” (Daikin Industries, Ltd., priority 2001, dated 2012).

System: Genes belonging to other category
Assay: DNA chip mRNA expression in yeast, genes belonging to other category (Table 9)
Format: cell-based, Saccharomyces cerevisiae S288C
Outline: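 In this screen, yeast in logarithmic growth are challenged for two hours with a toxic substance at a non-lethal inhibitory concentration. Their mRNA, converted to Cy3- or Cy5-labeled cDNA, hybridizes at 65° C. to a chip spanning every yeast gene, and expression is expressed as a ratio to untreated cells.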

SMILES: N#Cc1c(Cl)c(Cl)c(Cl)c(C#N)c1Cl [(9), 2,4,5,6-tetrachloro-1,3-benzenedicarbonitrile]
- The level of expressed mRNA in the presence of chemical substance/The level of expressed mRNA in the absence of chemical substance (yeast gene YMR297W): 1.9
- The level of expressed mRNA in the presence of chemical substance/The level of expressed mRNA in the absence of chemical substance (yeast gene YMR314W): 5.9
- The level of expressed mRNA in the presence of chemical substance/The level of expressed mRNA in the absence of chemical substance (yeast gene YNL006W): 4.0
- The level of expressed mRNA in the presence of chemical substance/The level of expressed mRNA in the absence of chemical substance (yeast gene YNL007C): 3.0
- The level of expressed mRNA in the presence of chemical substance/The level of expressed mRNA in the absence of chemical substance (yeast gene YNL036W): 6.6
- The level of expressed mRNA in the presence of chemical substance/The level of expressed mRNA in the absence of chemical substance (yeast gene YNL039W): 2.1
- The level of expressed mRNA in the presence of chemical substance/The level of expressed mRNA in the absence of chemical substance (yeast gene YNL093W): 1.7
- The level of expressed mRNA in the presence of chemical substance/The level of expressed mRNA in the absence of chemical substance (yeast gene YNL147W): 2.1
- The level of expressed mRNA in the presence of chemical substance/The level of expressed mRNA in the absence of chemical substance (yeast gene YNL214W): 1.5
- The level of expressed mRNA in the presence of chemical substance/The level of expressed mRNA in the absence of chemical substance (yeast gene YNL333W): 2.3
- The level of expressed mRNA in the presence of chemical substance/The level of expressed mRNA in the absence of chemical substance (yeast gene YNR010W): 1.7
- The level of expressed mRNA in the presence of chemical substance/The level of expressed mRNA in the absence of chemical substance (yeast gene YNR037C): 1.3
- The level of expressed mRNA in the presence of chemical substance/The level of expressed mRNA in the absence of chemical substance (yeast gene YNR069C): 5.5
- The level of expressed mRNA in the presence of chemical substance/The level of expressed mRNA in the absence of chemical substance (yeast gene YOL013C): 0.8
- The level of expressed mRNA in the presence of chemical substance/The level of expressed mRNA in the absence of chemical substance (yeast gene YOL164W): 4.9
- The level of expressed mRNA in the presence of chemical substance/The level of expressed mRNA in the absence of chemical substance (yeast gene YOR036W): 1.2
- The level of expressed mRNA in the presence of chemical substance/The level of expressed mRNA in the absence of chemical substance (yeast gene YOR058C): 6.4
- The level of expressed mRNA in the presence of chemical substance/The level of expressed mRNA in the absence of chemical substance (yeast gene YOR069W): 1.9
- The level of expressed mRNA in the presence of chemical substance/The level of expressed mRNA in the absence of chemical substance (yeast gene YOR117W): 3.5
- The level of expressed mRNA in the presence of chemical substance/The level of expressed mRNA in the absence of chemical substance (yeast gene YOR124C): 2.0
- The level of expressed mRNA in the presence of chemical substance/The level of expressed mRNA in the absence of chemical substance (yeast gene YOR132W): 2.8
- The level of expressed mRNA in the presence of chemical substance/The level of expressed mRNA in the absence of chemical substance (yeast gene YOR134W): 1.5
- The level of expressed mRNA in the presence of chemical substance/The level of expressed mRNA in the absence of chemical substance (yeast gene YOR149C): 0.4
- The level of expressed mRNA in the presence of chemical substance/The level of expressed mRNA in the absence of chemical substance (yeast gene YOR157C): 5.7
- The level of expressed mRNA in the presence of chemical substance/The level of expressed mRNA in the absence of chemical substance (yeast gene YOR165W): 0.8
- The level of expressed mRNA in the presence of chemical substance/The level of expressed mRNA in the absence of chemical substance (yeast gene YOR181W): 0.6
- The level of expressed mRNA in the presence of chemical substance/The level of expressed mRNA in the absence of chemical substance (yeast gene YOR185C): 1.9
- The level of expressed mRNA in the presence of chemical substance/The level of expressed mRNA in the absence of chemical substance (yeast gene YOR198C): 2.4
- The level of expressed mRNA in the presence of chemical substance/The level of expressed mRNA in the absence of chemical substance (yeast gene YOR256C): 2.7
- The level of expressed mRNA in the presence of chemical substance/The level of expressed mRNA in the absence of chemical substance (yeast gene YOR259C): 2.7
- The level of expressed mRNA in the presence of chemical substance/The level of expressed mRNA in the absence of chemical substance (yeast gene YOR261C): 5.5
- The level of expressed mRNA in the presence of chemical substance/The level of expressed mRNA in the absence of chemical substance (yeast gene YOR285W): 4.0
- The level of expressed mRNA in the presence of chemical substance/The level of expressed mRNA in the absence of chemical substance (yeast gene YOR288C): 0.9
- The level of expressed mRNA in the presence of chemical substance/The level of expressed mRNA in the absence of chemical substance (yeast gene YOR327C): 1.4
- The level of expressed mRNA in the presence of chemical substance/The level of expressed mRNA in the absence of chemical substance (yeast gene YOR355W): 0.1
- The level of expressed mRNA in the presence of chemical substance/The level of expressed mRNA in the absence of chemical substance (yeast gene YOR362C): 4.3
- The level of expressed mRNA in the presence of chemical substance/The level of expressed mRNA in the absence of chemical substance (yeast gene YOR383C): 1.2
- The level of expressed mRNA in the presence of chemical substance/The level of expressed mRNA in the absence of chemical substance (yeast gene YPL001W): 0.7
- The level of expressed mRNA in the presence of chemical substance/The level of expressed mRNA in the absence of chemical substance (yeast gene YPL018W): 1.4
- The level of expressed mRNA in the presence of chemical substance/The level of expressed mRNA in the absence of chemical substance (yeast gene YPL020C): 2.3
- The level of expressed mRNA in the presence of chemical substance/The level of expressed mRNA in the absence of chemical substance (yeast gene YPL089C): 0.4
- The level of expressed mRNA in the presence of chemical substance/The level of expressed mRNA in the absence of chemical substance (yeast gene YPL109C): 1.2
- The level of expressed mRNA in the presence of chemical substance/The level of expressed mRNA in the absence of chemical substance (yeast gene YPL149W): 5.6
- The level of expressed mRNA in the presence of chemical substance/The level of expressed mRNA in the absence of chemical substance (yeast gene YPL154C): 2.8
- The level of expressed mRNA in the presence of chemical substance/The level of expressed mRNA in the absence of chemical substance (yeast gene YPR066W): 2.3
- The level of expressed mRNA in the presence of chemical substance/The level of expressed mRNA in the absence of chemical substance (yeast gene YPR081C): 4.2
- The level of expressed mRNA in the presence of chemical substance/The level of expressed mRNA in the absence of chemical substance (yeast gene YPR086W): 3.0
- The level of expressed mRNA in the presence of chemical substance/The level of expressed mRNA in the absence of chemical substance (yeast gene YPR103W): 5.5
- The level of expressed mRNA in the presence of chemical substance/The level of expressed mRNA in the absence of chemical substance (yeast gene YPR107C): 2.4
- The level of expressed mRNA in the presence of chemical substance/The level of expressed mRNA in the absence of chemical substance (yeast gene YPR108W): 3.7
